Measured values as given in ChEMBL document CHEMBL4229543, “Squaramides as novel class I and IIB histone deacetylase inhibitors for topical treatment of cutaneous t-cell lymphoma” (Bioorg Med Chem Lett, 2018).
In brackets after ≈: the same amount, converted by molar mass.

Legend:
Histone deacetylase 5 = Histone deacetylase 5 (Homo sapiens, UniProt Q9UQL6); assay: Inhibition of human recombinant HDAC5 using fluorogenic HDAC substrate class 2a after 30 mins by fluorimetrc method
[1] = molecular target: T1, Polyamine deacetylase HDAC10 (Homo sapiens, UniProt Q969S8); assay: Inhibition of human recombinant HDAC10 using fluorogenic HDAC substrate after 45 mins by fluorimetrc method
T1 sequence (Q969S8 whole entry): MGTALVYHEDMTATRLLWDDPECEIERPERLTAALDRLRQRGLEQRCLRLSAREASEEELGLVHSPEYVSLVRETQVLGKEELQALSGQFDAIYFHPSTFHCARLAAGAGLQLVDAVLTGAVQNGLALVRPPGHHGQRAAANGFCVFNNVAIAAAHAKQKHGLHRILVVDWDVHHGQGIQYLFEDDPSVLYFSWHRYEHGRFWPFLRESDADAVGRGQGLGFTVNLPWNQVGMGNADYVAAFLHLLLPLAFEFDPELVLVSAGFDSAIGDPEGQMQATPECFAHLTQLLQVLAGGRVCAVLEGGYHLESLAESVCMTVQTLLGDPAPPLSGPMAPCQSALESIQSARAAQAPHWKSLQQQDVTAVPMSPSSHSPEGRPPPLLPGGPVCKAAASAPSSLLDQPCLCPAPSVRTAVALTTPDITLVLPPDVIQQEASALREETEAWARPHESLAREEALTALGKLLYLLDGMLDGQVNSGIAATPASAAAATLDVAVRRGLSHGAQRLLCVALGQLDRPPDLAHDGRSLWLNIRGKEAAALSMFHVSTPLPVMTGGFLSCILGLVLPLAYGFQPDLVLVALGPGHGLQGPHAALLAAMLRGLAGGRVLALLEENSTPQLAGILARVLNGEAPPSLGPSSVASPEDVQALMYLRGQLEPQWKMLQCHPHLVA

Histone deacetylase 1 = Histone deacetylase 1 (Homo sapiens, UniProt Q13547); assay: Inhibition of human recombinant HDAC1 using fluorogenic HDAC substrate after 15 mins by fluorimetrc method
Histone deacetylase 7 = molecular target: T2, Histone deacetylase 7 (Homo sapiens, UniProt Q8WUI4); assay: Inhibition of human recombinant HDAC7 using fluorogenic HDAC substrate class 2a after 45 mins by fluorimetrc method
T2 sequence (Q8WUI4 whole entry): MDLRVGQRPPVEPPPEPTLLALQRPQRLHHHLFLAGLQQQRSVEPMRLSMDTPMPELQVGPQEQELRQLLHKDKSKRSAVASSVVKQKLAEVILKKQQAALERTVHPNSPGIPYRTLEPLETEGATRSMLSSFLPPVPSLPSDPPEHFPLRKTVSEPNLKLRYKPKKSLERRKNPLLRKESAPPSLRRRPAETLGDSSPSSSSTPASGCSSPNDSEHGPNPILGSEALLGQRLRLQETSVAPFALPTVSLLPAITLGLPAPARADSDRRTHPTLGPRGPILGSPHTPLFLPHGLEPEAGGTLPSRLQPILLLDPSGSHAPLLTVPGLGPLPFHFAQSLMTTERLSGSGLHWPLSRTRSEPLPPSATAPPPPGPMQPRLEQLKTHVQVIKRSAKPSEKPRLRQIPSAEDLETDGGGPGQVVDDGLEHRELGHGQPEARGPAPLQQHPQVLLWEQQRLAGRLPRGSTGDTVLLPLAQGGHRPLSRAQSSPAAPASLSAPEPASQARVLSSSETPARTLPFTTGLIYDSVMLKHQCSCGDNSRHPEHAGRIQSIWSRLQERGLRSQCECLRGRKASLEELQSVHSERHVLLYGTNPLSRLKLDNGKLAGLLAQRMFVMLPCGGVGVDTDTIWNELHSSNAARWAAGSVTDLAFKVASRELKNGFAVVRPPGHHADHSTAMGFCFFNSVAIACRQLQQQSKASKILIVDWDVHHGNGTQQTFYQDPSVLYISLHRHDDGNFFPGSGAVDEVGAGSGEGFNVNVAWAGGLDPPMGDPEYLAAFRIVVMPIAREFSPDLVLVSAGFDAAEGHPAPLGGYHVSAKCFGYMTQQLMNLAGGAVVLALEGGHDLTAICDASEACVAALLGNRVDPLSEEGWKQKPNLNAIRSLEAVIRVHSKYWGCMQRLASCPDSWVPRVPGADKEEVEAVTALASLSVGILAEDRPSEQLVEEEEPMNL

Histone deacetylase 3 = Histone deacetylase 3 (Homo sapiens, UniProt O15379); assay: Inhibition of human recombinant HDAC3 using fluorogenic HDAC substrate after 10 mins by […] method
[2] = molecular target: T3, NAD-dependent protein deacetylase sirtuin-7 (Homo sapiens, UniProt Q9NRC8); assay: Inhibition of SIRT7 (unknown origin)
T3 sequence (Q9NRC8 whole entry): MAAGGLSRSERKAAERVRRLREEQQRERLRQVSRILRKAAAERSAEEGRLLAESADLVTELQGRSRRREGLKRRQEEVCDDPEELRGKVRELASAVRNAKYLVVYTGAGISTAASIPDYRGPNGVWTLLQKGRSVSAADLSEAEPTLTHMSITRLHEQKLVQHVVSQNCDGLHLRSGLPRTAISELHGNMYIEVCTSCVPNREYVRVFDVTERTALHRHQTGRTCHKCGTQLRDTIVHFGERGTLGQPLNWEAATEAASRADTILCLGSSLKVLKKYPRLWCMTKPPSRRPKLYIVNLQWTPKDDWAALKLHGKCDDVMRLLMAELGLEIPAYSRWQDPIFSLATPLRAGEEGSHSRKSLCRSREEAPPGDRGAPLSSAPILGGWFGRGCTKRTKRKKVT

Histone deacetylase 4 = Histone deacetylase 4 (Homo sapiens, UniProt P56524); assay: Inhibition of human recombinant HDAC4 using fluorogenic HDAC substrate class 2a after 30 mins by fluorimetrc method
[3] = Clearance in human hepatocytes assessed per million cells at 1 uM after 5 to 90 mins by LC-MS/MS analysis; format: ADME, cell-based, Hepatocyte; details: read-out: CLH
[4] = Solubility in PG/EtOH (96%) at 30 mg/mL after 24 hrs by UV-spectrometric method; format: physicochemical; details: PG/EtOH (96%)
[5] = Solubility in pH 7.4 phosphate buffer solution at 100 uM after 24 hrs by HPLC method; format: physicochemical; details: phosphate buffer, pH 7.4
Histone deacetylase 2 = Histone deacetylase 2 (Homo sapiens, UniProt Q92769); assay: Inhibition of human recombinant HDAC2 using fluorogenic HDAC substrate after 15 mins by fluorimetrc method
Histone deacetylase 11 = molecular target: T4, Histone deacetylase 11 (Homo sapiens, UniProt Q96DB2); assay: Inhibition of human recombinant HDAC11 using fluorogenic HDAC substrate class 2a after 30 mins by fluorimetrc method
T4 sequence (Q96DB2 whole entry): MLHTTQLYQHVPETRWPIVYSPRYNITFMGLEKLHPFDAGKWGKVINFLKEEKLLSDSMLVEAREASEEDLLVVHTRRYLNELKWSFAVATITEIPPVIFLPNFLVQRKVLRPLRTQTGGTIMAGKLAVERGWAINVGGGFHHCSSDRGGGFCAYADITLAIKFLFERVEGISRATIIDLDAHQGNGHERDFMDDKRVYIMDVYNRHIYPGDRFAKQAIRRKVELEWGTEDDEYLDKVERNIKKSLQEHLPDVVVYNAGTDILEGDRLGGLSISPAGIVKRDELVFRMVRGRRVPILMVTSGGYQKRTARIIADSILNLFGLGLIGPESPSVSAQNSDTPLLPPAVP

Sequence of Histone deacetylase 2 (Q92769 whole entry): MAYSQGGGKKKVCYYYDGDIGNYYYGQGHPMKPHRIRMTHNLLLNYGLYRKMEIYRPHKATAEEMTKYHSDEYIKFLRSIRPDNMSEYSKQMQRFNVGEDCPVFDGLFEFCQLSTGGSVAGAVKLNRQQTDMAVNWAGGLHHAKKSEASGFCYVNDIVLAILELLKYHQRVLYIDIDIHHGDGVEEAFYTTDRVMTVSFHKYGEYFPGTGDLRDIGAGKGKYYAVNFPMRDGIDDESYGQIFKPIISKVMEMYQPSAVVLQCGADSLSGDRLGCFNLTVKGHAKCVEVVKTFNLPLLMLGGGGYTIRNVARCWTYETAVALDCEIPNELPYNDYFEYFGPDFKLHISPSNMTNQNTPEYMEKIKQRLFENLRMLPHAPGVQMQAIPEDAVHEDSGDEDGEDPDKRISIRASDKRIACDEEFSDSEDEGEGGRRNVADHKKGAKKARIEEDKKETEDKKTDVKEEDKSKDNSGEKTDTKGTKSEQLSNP
Sequence of Histone deacetylase 3 (O15379 whole entry): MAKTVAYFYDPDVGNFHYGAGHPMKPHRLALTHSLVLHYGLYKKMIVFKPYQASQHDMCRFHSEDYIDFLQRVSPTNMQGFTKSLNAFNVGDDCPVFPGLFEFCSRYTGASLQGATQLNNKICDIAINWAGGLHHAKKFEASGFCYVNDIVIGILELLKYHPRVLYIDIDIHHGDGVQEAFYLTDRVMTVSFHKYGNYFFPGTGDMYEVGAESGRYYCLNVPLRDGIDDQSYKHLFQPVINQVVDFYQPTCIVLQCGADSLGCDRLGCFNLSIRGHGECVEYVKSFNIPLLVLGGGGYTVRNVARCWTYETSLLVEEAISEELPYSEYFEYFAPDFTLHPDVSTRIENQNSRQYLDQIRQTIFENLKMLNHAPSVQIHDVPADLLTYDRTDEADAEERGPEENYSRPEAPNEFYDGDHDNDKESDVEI
Sequence of Histone deacetylase 4 (P56524 whole entry): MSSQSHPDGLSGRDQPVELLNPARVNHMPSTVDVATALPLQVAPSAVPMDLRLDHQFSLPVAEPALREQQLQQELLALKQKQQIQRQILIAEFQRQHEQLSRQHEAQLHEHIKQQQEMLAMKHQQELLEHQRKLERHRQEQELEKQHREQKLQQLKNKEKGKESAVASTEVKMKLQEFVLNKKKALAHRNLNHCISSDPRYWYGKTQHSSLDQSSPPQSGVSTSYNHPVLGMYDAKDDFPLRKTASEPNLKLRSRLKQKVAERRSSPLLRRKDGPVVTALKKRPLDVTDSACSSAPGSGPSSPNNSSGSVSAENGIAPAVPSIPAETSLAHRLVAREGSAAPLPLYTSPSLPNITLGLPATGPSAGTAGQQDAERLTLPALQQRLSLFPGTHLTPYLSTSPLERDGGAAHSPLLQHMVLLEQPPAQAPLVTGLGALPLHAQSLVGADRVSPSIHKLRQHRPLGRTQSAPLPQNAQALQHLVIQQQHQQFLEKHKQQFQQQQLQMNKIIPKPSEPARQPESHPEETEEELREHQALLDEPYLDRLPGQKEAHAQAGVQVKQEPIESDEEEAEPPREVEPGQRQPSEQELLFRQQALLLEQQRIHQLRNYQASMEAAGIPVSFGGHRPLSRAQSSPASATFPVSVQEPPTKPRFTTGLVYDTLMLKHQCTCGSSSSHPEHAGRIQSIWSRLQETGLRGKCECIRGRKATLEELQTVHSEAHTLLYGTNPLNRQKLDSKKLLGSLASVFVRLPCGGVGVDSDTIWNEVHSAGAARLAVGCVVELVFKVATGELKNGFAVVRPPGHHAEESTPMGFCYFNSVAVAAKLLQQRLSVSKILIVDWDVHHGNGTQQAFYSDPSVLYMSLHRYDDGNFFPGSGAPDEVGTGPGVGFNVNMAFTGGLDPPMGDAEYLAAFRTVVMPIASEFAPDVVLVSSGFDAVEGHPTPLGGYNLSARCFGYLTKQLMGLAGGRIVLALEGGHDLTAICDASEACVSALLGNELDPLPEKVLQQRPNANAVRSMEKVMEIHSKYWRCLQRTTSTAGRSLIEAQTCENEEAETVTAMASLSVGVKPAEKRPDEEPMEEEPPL
Sequence of Histone deacetylase 1 (Q13547 whole entry): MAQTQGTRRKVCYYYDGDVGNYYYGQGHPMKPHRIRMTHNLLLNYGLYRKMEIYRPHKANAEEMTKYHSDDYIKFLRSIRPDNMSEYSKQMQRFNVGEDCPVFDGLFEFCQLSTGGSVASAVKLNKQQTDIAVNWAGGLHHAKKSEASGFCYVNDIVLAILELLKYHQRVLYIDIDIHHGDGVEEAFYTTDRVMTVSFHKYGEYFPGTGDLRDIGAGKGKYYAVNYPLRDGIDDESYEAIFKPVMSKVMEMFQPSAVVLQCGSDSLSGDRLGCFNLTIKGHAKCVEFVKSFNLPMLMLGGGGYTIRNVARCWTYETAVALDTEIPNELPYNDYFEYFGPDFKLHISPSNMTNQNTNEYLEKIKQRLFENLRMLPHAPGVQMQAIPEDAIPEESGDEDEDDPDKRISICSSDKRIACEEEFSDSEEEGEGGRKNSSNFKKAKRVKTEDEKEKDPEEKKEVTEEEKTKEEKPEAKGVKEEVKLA
Sequence of Histone deacetylase 5 (Q9UQL6 whole entry): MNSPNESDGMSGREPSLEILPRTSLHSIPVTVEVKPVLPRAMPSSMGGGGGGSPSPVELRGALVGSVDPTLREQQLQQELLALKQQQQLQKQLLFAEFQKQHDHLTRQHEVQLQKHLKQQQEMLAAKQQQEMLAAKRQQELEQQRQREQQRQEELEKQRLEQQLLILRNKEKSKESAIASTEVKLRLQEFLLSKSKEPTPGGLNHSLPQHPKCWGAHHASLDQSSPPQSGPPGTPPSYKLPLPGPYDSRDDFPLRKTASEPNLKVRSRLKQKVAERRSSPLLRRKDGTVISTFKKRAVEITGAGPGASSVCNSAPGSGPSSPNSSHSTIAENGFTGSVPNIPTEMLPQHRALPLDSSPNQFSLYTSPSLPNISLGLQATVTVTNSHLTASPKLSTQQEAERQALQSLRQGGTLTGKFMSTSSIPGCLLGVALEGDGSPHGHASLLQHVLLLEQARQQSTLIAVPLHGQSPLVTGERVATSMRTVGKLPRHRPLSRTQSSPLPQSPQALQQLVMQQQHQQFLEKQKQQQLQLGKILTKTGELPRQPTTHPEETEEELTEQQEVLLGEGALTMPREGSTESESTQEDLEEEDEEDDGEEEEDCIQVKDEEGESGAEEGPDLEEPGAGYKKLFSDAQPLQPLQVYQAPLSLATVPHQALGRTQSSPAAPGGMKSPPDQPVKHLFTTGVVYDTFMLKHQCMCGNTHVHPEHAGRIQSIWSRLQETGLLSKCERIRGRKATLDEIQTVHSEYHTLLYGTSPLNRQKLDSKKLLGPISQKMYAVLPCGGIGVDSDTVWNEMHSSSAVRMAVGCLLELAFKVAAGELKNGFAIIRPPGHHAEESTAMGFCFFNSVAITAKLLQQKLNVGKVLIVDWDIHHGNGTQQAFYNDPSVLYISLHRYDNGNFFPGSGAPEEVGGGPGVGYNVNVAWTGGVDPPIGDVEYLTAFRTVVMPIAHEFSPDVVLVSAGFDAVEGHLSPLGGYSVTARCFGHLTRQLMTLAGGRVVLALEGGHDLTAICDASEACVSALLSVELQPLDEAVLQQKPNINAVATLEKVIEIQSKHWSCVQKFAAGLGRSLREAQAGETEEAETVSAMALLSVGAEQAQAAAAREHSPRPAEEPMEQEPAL

| Compound | Ki (Histone deacetylase 5) [nM] | Ki [1] [nM] | Ki (Histone deacetylase 1) [nM] | Ki (Histone deacetylase 7) [nM] | Ki (Histone deacetylase 3) [nM] | Ki [2] [nM] | Ki (Histone deacetylase 4) [nM] | hepatocyte CLint at 1 µM [3] [µL/min/1e6 cells] | solubility at 24 h [4] [µM] | solubility at 24 h, 100 µM [5] [µM] | Ki (Histone deacetylase 2) [nM] | Ki (Histone deacetylase 11) [nM] |
| --- | --- | --- | --- | --- | --- | --- | --- | --- | --- | --- | --- | --- |
| COc1ccc(Nc2c(NCCCCCC(=O)NO)c(=O)c2=O)cc1 | 1000 | 1.2 | 0.34 | > 10000 | 0.8 | > 10000 | > 10000 | < 4.7 | 300 (≈ 104 µg/mL) | 3.3 (≈ 1.15 µg/mL) | 3.1 | 140 |
| CC(C)(CCCCC(=O)NO)Nc1c(Nc2ccc(C(F)(F)F)cc2)c(=O)c1=O | 360 | 3 | 1 | 1700 | 12 | > 10000 | 3400 | 29 | 30000 (≈ 12400 µg/mL) | 36 (≈ 14.9 µg/mL) | 23 | 21 |
| CC(Nc1c(NCCCCCC(=O)NO)c(=O)c1=O)C12CC3CC(CC(C3)C1)C2 (stereo unspecified) | 4200 | 50 | 48 | > 10000 | 58 | > 10000 | > 10000 | < 5 | 39000 (≈ 15700 µg/mL) | 24 (≈ 9.68 µg/mL) | 130 | 38 |
